Assay results reported in patent US10287269B2, “Pyrazolyl pyrimidinone compounds as PDE2 inhibitors” (Merck Sharp & Dohme Corp., priority 2015, dated 2019).

Molecular target: T1, Rhesus PDE2A3 (Macaca mulatta, UniProt B3VTJ2)
T1 construct: made in house; host or cells: AD293 cells, transient transfection, pcDNA3.3-TOPO; lysate supernatant used as enzyme
T1 sequence (B3VTJ2 1-941): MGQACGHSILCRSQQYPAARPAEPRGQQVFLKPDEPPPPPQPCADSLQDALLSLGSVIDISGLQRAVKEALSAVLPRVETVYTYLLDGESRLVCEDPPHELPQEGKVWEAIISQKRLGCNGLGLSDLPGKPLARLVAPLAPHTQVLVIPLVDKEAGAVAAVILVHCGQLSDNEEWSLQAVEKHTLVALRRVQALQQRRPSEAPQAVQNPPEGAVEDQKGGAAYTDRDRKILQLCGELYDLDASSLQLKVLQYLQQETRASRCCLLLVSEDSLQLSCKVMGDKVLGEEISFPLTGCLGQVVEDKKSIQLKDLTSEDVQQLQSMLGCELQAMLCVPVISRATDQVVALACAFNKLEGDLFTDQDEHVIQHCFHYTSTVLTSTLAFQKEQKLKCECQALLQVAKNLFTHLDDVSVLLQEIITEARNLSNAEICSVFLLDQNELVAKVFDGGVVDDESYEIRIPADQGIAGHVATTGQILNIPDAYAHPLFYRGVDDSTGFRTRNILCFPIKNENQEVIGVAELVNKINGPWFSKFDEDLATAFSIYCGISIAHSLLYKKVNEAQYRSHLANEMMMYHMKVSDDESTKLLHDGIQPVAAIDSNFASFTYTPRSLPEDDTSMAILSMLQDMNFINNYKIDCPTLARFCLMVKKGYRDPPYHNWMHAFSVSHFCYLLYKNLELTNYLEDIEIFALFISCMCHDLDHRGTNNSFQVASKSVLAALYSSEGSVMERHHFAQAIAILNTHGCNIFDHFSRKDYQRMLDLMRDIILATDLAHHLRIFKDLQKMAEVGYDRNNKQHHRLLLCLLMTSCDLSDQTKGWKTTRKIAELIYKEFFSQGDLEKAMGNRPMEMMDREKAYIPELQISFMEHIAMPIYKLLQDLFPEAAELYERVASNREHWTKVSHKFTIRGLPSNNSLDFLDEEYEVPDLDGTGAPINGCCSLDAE
Experiment: PDE2 fluorescence polarization (IMAP FP) inhibition assay, rhesus enzyme
Assay type: biochemical, rhesus macaque
Conditions: Lab A; read-out: Rhesus PDE2 Ki (nM) Lab A
Protocol: The activity of the compounds in accordance with the present invention as PDE2 inhibitors may be readily determined using a fluorescence polarization (FP) methodology (Huang, W., et al., J. Biomol Screen, 2002, 7: 215).
In a typical experiment the PDE2 inhibitory activity of the compounds of the present invention was determined in accordance with the following experimental method. Rhesus PDE2A3 was amplified from rhesus macaque brain cDNA (Biochain Institute, Hayward, Calif.) using primers based on human PDE2A sequence (accession NM_002599.3) where the forward primer containing a Kozak consensus was 5′-[…]-3′ and the reverse primer was 5′-[…]-3′. Amplification with Easy-A High-Fidelity PCR cloning enzyme (Stratagene, La Jolla, Calif.) was 95° C. for 2 minutes followed by thirty three cycles of 95° C. for 40 seconds, 52° C. for 30 seconds, and 72° C. for 2 minutes 48 seconds. Final extension was 72° C. for 7 minutes. The PCR product was TA cloned into pcDNA3.3-TOPO (Invitrogen, Carlsbad, Calif.) according to standard protocol. A consensus sequence was developed from multiple clones and then deposited into GenBank (EU812167). AD293 cells (Stratagene, La Jolla, Calif.) with 70-80% confluency were transiently transfected with rhesus PDE2A3/pcDNA3.3-TOPO using Lipofectamine 2000 according to manufacturer specifications (Invitrogen, Carlsbad, Calif.). Cells were harvested 48 hours post-transfection and lysed by sonication (setting 3, 10×5 sec pulses) in a buffer containing 20 mM HEPES pH 7.4, 1 mM EDTA and Complete Protease Inhibitor Cocktail Tablets (Roche, Indianapolis, Ind.). Lysate was collected by centrifugation at 75,000×g for 20 minutes at 4° C. and supernatant utilized for evaluation of PDE2 activity. The fluorescence polarization assay for cyclic nucleotide phosphodiesterases was performed using an IMAP® FP kit supplied by Molecular Devices, Sunnyvale, Calif. (product # R8139). […] Assays were performed at room temperature in 384-well microtiter plates with an incubation volume of 20.2 μL. Solutions of test compounds were prepared in DMSO and serially diluted with DMSO to yield 8 μL of each of 10 solutions differing by 3-fold in concentration, at 32 serial dilutions per plate. […] 0% of inhibition is determined by using DMSO (1% final concentrations).
A Labcyte Echo 555 (Labcyte, Sunnyvale, Calif.) is used to dispense 200 nL from each well of the titration plate to the 384 well assay plate. Ten microliters of a solution of enzyme (1/2000 final dilution from aliquots; sufficient to produce 20% substrate conversion) was added to the assay plate. Next 10 uL of a separate solution of the substrate FAM-labeled cAMP (50 nM final concentration product # R7506 from Molecular Devices) and the activator cGMP (1 uM final concentration), prepared in the assay buffer (10 mM Tris HCl, pH 7.2, 10 mM MgCl2, 0.05% NaN3 0.01% Tween-20, and 1 mM DTT) was added to the assay plate and shaken to mix. The reaction is allowed to proceed at room temperature for 60 minutes. A binding solution is then made from the kit components, comprised of 80% Solution A, 20% Solution B and binding reagent at a volume of 1/600 the total binding solution. The enzymatic reaction is stopped by addition of 60 μl, of the binding solution to each well of the assay plates and the plates are sealed and shaken for 30 seconds. The plate was incubated at room temperature for at least one hour prior to determining the fluorescence polarization (FP). The parallel and perpendicular fluorescence of each well of the plate was measured using a Tecan Genios Pro plate reader (Tecan, Switzerland) or Perkin Elmer EnVision™ plate reader (Waltham, Mass.). Fluorescence polarization (mP) was calculated from the parallel (S) and perpendicular (P) fluorescence of each sample well and the analogous values for the median control well, containing only substrate (So and Po), using the following equation: Polarization (mP)=1000*(S/So−P/Po)/(S/So+P/Po).

| SMILES | Ki |
| --- | --- |
| Cc1nc(-c2cnn(C(C)c3ccc(C(F)(F)F)cc3Cl)c2)cc(=O)[nH]1 (single isomer, unassigned) [Example 84, (S)- or (R)-6-(1-(1-(2-chloro-4-(trifluoromethyl)phenyl)ethyl)-1H-pyrazol-4-yl)-2-methylpyrimidin-4(3H)-one] | 179 nM |
| CCc1nc(-c2cnn(C(C)c3ccc(C(F)(F)F)cc3F)c2)cc(=O)[nH]1 (single isomer, unassigned) [Example 86, (S)- or (R)-2-ethyl-6-(1-(1-(2-fluoro-4-(trifluoromethyl)phenyl)ethyl)-1H-pyrazol-4-yl)pyrimidin-4(3H)-one] | 146 nM |
| Cc1nc(-c2cnn(C(C)c3ccc(OC(F)F)cc3F)c2)cc(=O)[nH]1 (single isomer, unassigned) [Example 87, (R)- or (S)-6-(1-(1-(4-(difluoromethoxy)-2-fluorophenyl)ethyl)-1H-pyrazol-4-yl)-2-methylpyrimidin-4(3H)-one] | 480 nM |
| Cc1nc(-c2cnn(C(C)c3ccc(OC(F)F)cc3F)c2)cc(=O)[nH]1 (single isomer, unassigned) [Example 88, (S)- or (R)-6-(1-(1-(4-(difluoromethoxy)-2-fluorophenyl)ethyl)-1H-pyrazol-4-yl)-2-methylpyrimidin-4(3H)-one] | 162 nM |
| Cc1nc(-c2cnn(C(C)c3ccc(OC(F)F)cc3C)c2)cc(=O)[nH]1 (single isomer, unassigned) [Example 89, (R)- or (S)-6-(1-(1-(4-(difluoromethoxy)-2-methylphenyl)ethyl)-1H-pyrazol-4-yl)-2-methylpyrimidin-4(3H)-one] | 1840 nM |
| Cc1nc(-c2cnn(C(C)c3ccc(OC(F)F)cc3C)c2)cc(=O)[nH]1 (single isomer, unassigned) [Example 90, (S)- or (R)-6-(1-(1-(4-(difluoromethoxy)-2-methylphenyl)ethyl)-1H-pyrazol-4-yl)-2-methylpyrimidin-4(3H)-one] | 150 nM |
| Cc1nc(-c2cnn(C(C)c3ccc(C4CC4)cc3F)c2)cc(=O)[nH]1 (single isomer, unassigned) [Example 92, (S)- or (R)-6-(1-(1-(4-cyclopropyl-2-fluorophenyl)ethyl)-1H-pyrazol-4-yl)-2-methylpyrimidin-4(3H)-one] | 212 nM |
| Cc1nc(-c2cnn(C(C)c3ccc(C4CC4)cc3C)c2)cc(=O)[nH]1 (single isomer, unassigned) [Example 93, (R)- or (S)-6-(1-(1-(4-cyclopropyl-2-methylphenyl)ethyl)-1H-pyrazol-4-yl)-2-methylpyrimidin-4(3H)-one] | 706 nM |
| Cc1nc(-c2cnn(C(C)c3ccc(CC(F)(F)F)cc3F)c2)cc(=O)[nH]1 (single isomer, unassigned) [Example 95, (R)- or (S)-6-(1-(1-(2-fluoro-4-(2,2,2-trifluoroethyl)phenyl)ethyl)-1H-pyrazol-4-yl)-2-methylpyrimidin-4(3H)-one] | 1140 nM |
| Cc1nc(-c2cnn(C(C)c3ccc(CC(F)(F)F)cc3F)c2)cc(=O)[nH]1 (single isomer, unassigned) [Example 96, (S)- or (R)-6-(1-(1-(2-fluoro-4-(2,2,2-trifluoroethyl)phenyl)ethyl)-1H-pyrazol-4-yl)-2-methylpyrimidin-4(3H)-one] | 1260 nM |
| COCc1ccc(C(C)n2cc(-c3cc(=O)[nH]c(C)n3)cn2)c(F)c1 (single isomer, unassigned) [Example 97, (R)- or (S)-6-(1-(1-(2-fluoro-4-(methoxymethyl)phenyl)ethyl)-1H-pyrazol-4-yl)-2-methylpyrimidin-4(3H)-one] | 464 nM |
| COCc1ccc(C(C)n2cc(-c3cc(=O)[nH]c(C)n3)cn2)c(F)c1 (single isomer, unassigned) [Example 98, (S)- or (R)-6-(1-(1-(2-fluoro-4-(methoxymethyl)phenyl)ethyl)-1H-pyrazol-4-yl)-2-methylpyrimidin-4(3H)-one] | > 2970 nM |

Same assay, conditions: Lab B; read-out: Rhesus PDE2 Ki (nM) Lab B

| SMILES | Ki |
| --- | --- |
| COc1cc(C(F)(F)F)ccc1[C@@H](C)n1cc(-c2cc(=O)[nH]c(C)n2)cn1 (single isomer, unassigned) [Example 1] | 301 nM |
| Cc1nc(-c2cc([C@@H](C)c3ccc(C(F)(F)F)cc3)n(C)n2)cc(=O)[nH]1 (single isomer, unassigned) [Example 25] | 3680 nM |
| Cc1nc(-c2cc([C@@H](C)c3ccc(C(F)(F)F)cc3)n(C)n2)cc(=O)[nH]1 (single isomer, unassigned) [Example 26] | 1140 nM |
| Cc1nc(-n2cc(C(C)c3ccc(C(F)(F)F)c(F)c3)cn2)cc(=O)[nH]1 (single isomer, unassigned) [Example 50, (R)- or (S)-6-(4-(1-(3-fluoro-4-(trifluoromethyl)phenyl)ethyl)-1H-pyrazol-1-yl)-2-methylpyrimidin-4(3H)-one] | > 1000 nM |
| Cc1nc(-n2cc(C(C)c3ccc(C(F)(F)F)c(F)c3)cn2)cc(=O)[nH]1 (single isomer, unassigned) [Example 51, (S)- or (R)-6-(4-(1-(3-fluoro-4-(trifluoromethyl)phenyl)ethyl)-1H-pyrazol-1-yl)-2-methylpyrimidin-4(3H)-one] | > 1000 nM |
| Cc1nc(-c2cnn(C(C)c3ccc(C(F)(F)F)cc3C)c2)cc(=O)[nH]1 (single isomer, unassigned) [Example 56, (R)- or (S)-2-methyl-6-(1-(1-(2-methyl-4-(trifluoromethyl)phenyl)ethyl)-1H-pyrazol-4-yl)pyrimidin-4(3H)-one] | 314 nM |
| Cc1nc(-c2cnn(C(C)c3ccc(OC(F)(F)F)cc3F)c2)cc(=O)[nH]1 (single isomer, unassigned) [Example 58, (R)- or (S)-6-(1-(1-(2-fluoro-4-(trifluoromethoxy)phenyl)ethyl)-1H-pyrazol-4-yl)-2-methylpyrimidin-4(3H)-one] | 256 nM |
| Cc1nc(-c2cnn(C(C)c3ccc(OC(F)(F)F)cc3F)c2)cc(=O)[nH]1 (single isomer, unassigned) [Example 59, (S)- or (R)-6-(1-(1-(2-fluoro-4-(trifluoromethoxy)phenyl)ethyl)-1H-pyrazol-4-yl)-2-methylpyrimidin-4(3H)-one] | 469 nM |
